Reference: BindingDB's records for patent US20250352549 (Avelos Therapeutics, 2025)

Biological target: T1, Serine/threonine-protein kinase greatwall (Human, UniProt Q96GX5)
T1 sequence (Q96GX5 whole entry): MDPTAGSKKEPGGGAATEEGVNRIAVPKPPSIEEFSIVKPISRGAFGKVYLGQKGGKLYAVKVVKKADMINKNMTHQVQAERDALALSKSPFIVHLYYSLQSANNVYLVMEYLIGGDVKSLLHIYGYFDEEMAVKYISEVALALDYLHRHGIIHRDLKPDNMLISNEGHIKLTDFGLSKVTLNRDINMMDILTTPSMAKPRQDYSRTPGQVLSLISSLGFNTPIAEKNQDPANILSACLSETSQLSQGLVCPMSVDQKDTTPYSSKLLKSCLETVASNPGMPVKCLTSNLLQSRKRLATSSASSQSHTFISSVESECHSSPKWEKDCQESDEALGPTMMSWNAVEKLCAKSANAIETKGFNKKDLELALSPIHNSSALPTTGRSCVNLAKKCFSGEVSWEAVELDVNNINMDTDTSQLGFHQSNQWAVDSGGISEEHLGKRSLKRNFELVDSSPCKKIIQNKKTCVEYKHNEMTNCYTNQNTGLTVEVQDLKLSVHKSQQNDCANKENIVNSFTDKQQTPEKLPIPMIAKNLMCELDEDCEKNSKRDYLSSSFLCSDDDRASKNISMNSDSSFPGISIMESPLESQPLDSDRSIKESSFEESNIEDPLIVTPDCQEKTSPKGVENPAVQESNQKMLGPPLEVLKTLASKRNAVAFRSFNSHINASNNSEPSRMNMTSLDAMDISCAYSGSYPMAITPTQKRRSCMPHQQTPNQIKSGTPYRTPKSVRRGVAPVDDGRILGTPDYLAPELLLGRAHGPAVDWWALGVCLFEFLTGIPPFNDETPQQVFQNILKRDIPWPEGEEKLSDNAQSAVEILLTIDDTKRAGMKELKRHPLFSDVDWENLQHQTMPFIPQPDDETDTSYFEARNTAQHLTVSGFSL
Test: MASTL Activity Assay
Protocol: Wild-type human active MASTL (154 pM) was incubated in assay buffer (50 mM HEPES, 100 mM NaCl, 0.1 mM EGTA, 10 mM MgCl2, 0.01% Tween-20, 0.5 mM TCEP, pH 7.5) with biotin tagged 40-mer ENSA peptide (10 nM), test compound and ATP (18 μM) for 60 minutes at room temperature. Test compounds were assayed using a 12-point dose range consisting of a 0, DMSO control and 10 sequential doses consisting from 0.0005, 0.002, 0.005, 0.014, 0.04, 0.12, 0.37, 1.11, 3.33 and 10 μM. The DMSO concentration was the same (1%) in all samples. An equal volume of detection buffer (assay buffer+267.5 pM Ab-K, 1.25 nM SA-D2, 20 mM EDTA and 400 mM KF) was added to stop the reaction to make a final volume of 20 μl, RT for 60 mins. Activity was measured using a plate reader (PerkinElmer EnSight) by the FRET signal generated between SA-D2 (streptavidin-D2) and Ab-K (anti-phospho-Serine 67 ENSA antibody (rabbit polyclonal, using standard techniques by a commercial supplier) conjugated to Cryptate). HTRF reagents (CisBio) were prepared as per the manufacturer recommendations. The 40-mer biotin-tagged ENSA peptide (synthesised by Bionics) used was based around Serine 67 on ENSA ([…]).

Structure (SMILES)	IC50
CC(C)C(Nc1nc(N)nc(-c2ccc3cn[nH]c3c2)n1)c1c[nH]c(C(F)(F)F)n1 (stereo unspecified) [US20250352549, Example 156]	< 500 nM
CCC(Nc1nc(N)nc(-c2ccc3cn[nH]c3c2)n1)c1c[nH]c(C(F)(F)F)n1 (stereo unspecified) [US20250352549, Example 157]	< 500 nM
Cc1ncc2ccc(-c3nc(N)nc(NC(c4nc(C(F)(F)F)no4)C(C)C)n3)cn12 (stereo unspecified) [US20250352549, Example 158]	> 1000 nM
Cc1ncc2ccc(-c3nc(N)nc(NCc4nc(C(F)(F)F)no4)n3)cn12 [US20250352549, Example 159]	in the range around 750 nM
Cc1ncc2ccc(-c3nc(N)nc(NC(C)(C)c4nc(C(F)(F)F)no4)n3)cn12 [US20250352549, Example 160]	in the range around 750 nM
Cc1ncc2ccc(-c3nc(N)nc(N(C)C(c4c[nH]c(C(F)(F)F)n4)C(C)C)n3)cn12 (stereo unspecified) [US20250352549, Example 161]	in the range around 750 nM
Cc1ncc2ccc(-c3nc(N)nc(N(C)Cc4cccc(F)c4Cl)n3)cn12 [US20250352549, Example 162]	in the range around 750 nM
Cc1ncc2ccc(-c3nc(N)nc(N(C)Cc4cccc(Cl)c4F)n3)cn12 [US20250352549, Example 163]	< 500 nM
Cc1ncc2ccc(-c3nc(N)nc(N(C)Cc4c[nH]c(C(F)(F)F)n4)n3)cn12 [US20250352549, Example 164]	< 500 nM
Cc1ncc2ccc(-c3nc(N)nc(NC(c4cn(C)c(C(F)(F)F)n4)C(C)C)n3)cn12 (stereo unspecified) [US20250352549, Example 165]	< 500 nM
Cc1ncc2ccc(-c3nc(N)nc(NC(c4nnc(C(F)(F)F)o4)C(C)C)n3)cn12 (stereo unspecified) [US20250352549, Example 166]	> 1000 nM
CC(C)C(Nc1nc(N)nc(-c2ccc3cn[nH]c3c2)n1)c1ccn(C(F)F)n1 (stereo unspecified) [US20250352549, Example 167]	< 500 nM
Cc1ncc2ccc(-c3nc(N)nc(NC(c4ccc(C#N)cn4)C(C)C)n3)cn12 (stereo unspecified) [US20250352549, Example 168]	> 1000 nM
Cc1ncc2ccc(-c3nc(N)nc(N(C)C(c4cn(C)c(C(F)(F)F)n4)C(C)C)n3)cn12 (stereo unspecified) [US20250352549, Example 169]	in the range around 750 nM
CNc1nc(NC(c2ccn(C(F)F)n2)C(C)C)nc(-c2ccc3cn[nH]c3c2)n1 (stereo unspecified) [US20250352549, Example 171]	< 500 nM
CNc1nc(NC(C)(C)c2ccn(C(F)F)n2)nc(-c2ccc3cnn(C)c3c2)n1 [US20250352549, Example 172]	< 500 nM
Cn1ncc2ccc(-c3nc(N)nc(NC(C)(C)c4c[nH]c(C(F)(F)F)n4)n3)cc21 [US20250352549, Example 174]	< 500 nM
Cc1ncc2ccc(-c3nc(N)nc(NC(C)(C)c4ccn(CCN)n4)n3)cn12 [US20250352549, Example 175]	< 500 nM
Cc1ncc2ccc(-c3nc(N)nc(NC(c4ccc(CN)cn4)C(C)C)n3)cn12 (stereo unspecified) [US20250352549, Example 178]	< 500 nM
CC(C)CC(Nc1nc(N)nc(-c2ccc3cn[nH]c3c2)n1)c1c[nH]c(C(F)(F)F)n1 (stereo unspecified) [US20250352549, Example 179]	< 500 nM
Cc1nc(C)n2cc(-c3nc(N)nc(NC(c4c[nH]c(C(F)(F)F)n4)C(C)C)n3)ccc12 (stereo unspecified) [US20250352549, Example 181]	< 500 nM
